Data from patent publication US10526316B2, “Quinoxaline and pyridopyrazine derivatives as PI3Kβ inhibitors” (Janssen Pharmaceutica NV, priority 2015, dated 2020).
Like-named read-outs stand apart in the source and are kept apart here.

How the values were obtained:
[1] = target: T1, PI3Kδ (Homo sapiens, UniProt O00329); assay: Enzyme binding assay (KINOMEscan, DiscoveRx); details: PIK3Cδ_h
T1 construct: purchased DiscoveRx Corporation, San Diego (contract service, KINOMEscan)
T1 sequence (O00329 1-1044): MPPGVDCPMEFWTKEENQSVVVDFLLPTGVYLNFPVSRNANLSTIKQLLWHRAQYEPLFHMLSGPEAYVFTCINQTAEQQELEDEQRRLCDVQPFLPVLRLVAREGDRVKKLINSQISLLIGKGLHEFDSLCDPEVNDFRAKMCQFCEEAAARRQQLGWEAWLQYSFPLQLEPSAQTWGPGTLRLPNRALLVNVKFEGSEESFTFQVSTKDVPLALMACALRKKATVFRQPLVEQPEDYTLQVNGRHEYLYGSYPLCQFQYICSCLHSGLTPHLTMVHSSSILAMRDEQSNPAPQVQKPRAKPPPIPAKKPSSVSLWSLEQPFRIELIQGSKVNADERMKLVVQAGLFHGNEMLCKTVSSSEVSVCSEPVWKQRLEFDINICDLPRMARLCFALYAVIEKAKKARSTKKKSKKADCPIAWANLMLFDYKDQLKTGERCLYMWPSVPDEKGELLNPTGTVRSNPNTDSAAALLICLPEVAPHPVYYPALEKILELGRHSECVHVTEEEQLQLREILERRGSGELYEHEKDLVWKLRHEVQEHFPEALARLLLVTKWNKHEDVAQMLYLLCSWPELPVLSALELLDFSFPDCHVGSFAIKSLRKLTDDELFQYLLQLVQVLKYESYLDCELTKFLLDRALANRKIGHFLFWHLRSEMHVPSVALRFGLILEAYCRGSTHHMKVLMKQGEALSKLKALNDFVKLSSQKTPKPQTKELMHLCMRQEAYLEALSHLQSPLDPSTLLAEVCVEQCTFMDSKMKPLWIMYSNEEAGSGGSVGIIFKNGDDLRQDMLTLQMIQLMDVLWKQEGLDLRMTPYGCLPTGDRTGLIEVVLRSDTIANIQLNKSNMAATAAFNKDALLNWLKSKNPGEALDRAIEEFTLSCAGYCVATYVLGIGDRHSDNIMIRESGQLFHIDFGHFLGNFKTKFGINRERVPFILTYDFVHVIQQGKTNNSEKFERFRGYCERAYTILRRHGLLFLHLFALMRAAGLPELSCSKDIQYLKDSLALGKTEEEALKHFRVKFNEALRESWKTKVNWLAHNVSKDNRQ
Summary of the method: (§1)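 Kinase binding measured via KINOMEscan, reported as affinity.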

[2] = target: T2, PI3Kβ (Homo sapiens, UniProt P42338); assay: Enzyme binding assay (KINOMEscan, DiscoveRx); details: PIK3Cβ_h, read-out: Kd PIK3Cβ_h
T2 construct: purchased DiscoveRx Corporation, San Diego (contract service, KINOMEscan)
T2 sequence (P42338 whole entry): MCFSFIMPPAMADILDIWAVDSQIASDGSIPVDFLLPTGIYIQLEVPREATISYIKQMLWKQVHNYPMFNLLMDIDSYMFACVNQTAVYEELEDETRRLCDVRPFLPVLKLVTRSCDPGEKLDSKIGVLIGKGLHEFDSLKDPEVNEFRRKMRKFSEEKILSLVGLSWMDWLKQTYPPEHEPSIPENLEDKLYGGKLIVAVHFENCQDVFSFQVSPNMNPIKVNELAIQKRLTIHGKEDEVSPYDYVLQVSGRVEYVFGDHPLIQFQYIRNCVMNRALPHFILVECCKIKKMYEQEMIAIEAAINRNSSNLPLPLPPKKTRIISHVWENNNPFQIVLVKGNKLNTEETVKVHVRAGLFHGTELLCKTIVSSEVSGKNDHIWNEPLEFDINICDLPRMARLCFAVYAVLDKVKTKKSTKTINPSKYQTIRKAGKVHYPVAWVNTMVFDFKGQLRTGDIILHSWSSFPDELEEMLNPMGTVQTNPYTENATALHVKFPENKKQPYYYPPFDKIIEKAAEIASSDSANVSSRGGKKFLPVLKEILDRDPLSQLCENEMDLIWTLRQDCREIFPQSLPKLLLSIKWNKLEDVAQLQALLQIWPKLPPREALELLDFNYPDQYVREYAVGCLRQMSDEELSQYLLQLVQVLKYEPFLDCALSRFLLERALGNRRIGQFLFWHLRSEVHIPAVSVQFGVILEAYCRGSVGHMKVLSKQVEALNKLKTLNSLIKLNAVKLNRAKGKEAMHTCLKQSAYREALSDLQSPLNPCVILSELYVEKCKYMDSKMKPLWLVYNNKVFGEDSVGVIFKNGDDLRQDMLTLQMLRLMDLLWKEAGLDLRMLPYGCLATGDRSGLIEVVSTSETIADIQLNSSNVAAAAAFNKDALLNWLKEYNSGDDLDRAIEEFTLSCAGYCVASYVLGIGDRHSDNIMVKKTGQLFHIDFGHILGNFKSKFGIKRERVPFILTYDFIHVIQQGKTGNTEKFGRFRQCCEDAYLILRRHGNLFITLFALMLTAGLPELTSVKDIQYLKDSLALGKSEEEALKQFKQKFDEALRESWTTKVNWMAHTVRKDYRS
Summary of the method: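 Reported Kd (nM) reflects inhibitor binding to the kinase, as measured by KINOMEscan technology.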

[3] = target: T3, kinase enzymes (Homo sapiens, UniProt P48736); assay: Enzyme binding assay (KINOMEscan, DiscoveRx), further kinases of Table A; details: PIK3Cγ_h
T3 construct: purchased DiscoveRx Corporation, San Diego (contract service, KINOMEscan)
T3 sequence (P48736 whole entry): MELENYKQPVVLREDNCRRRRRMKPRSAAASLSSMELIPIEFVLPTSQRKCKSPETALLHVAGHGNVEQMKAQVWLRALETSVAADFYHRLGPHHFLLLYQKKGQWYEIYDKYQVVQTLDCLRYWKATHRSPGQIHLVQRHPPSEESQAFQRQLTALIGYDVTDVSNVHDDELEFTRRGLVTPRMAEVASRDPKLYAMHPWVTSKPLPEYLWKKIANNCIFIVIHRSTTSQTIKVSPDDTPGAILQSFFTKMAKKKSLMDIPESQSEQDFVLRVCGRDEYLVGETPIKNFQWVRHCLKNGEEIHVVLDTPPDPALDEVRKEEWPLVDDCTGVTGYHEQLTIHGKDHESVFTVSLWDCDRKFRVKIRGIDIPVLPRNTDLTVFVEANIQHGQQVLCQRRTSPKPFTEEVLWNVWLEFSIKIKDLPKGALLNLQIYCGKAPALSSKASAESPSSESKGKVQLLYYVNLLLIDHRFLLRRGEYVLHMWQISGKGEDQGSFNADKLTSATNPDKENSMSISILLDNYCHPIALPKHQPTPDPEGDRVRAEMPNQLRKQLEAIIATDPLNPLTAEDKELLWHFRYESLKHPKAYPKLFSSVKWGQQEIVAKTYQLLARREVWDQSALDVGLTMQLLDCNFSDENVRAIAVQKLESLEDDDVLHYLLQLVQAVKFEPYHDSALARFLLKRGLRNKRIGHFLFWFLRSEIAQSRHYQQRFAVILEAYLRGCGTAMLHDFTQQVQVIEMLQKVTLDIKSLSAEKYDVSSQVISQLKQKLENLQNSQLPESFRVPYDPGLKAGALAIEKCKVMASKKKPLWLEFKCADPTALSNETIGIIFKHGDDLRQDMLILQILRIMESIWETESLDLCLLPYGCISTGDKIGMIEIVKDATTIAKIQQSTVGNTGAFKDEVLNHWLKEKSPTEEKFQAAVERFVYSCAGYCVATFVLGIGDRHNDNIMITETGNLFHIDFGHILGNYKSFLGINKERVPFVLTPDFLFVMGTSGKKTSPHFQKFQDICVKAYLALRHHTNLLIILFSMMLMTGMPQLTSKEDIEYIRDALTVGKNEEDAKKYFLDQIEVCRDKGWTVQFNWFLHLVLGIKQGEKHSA
Summary of the method: as §1

[4] = target: T4, kinase enzymes (Homo sapiens, UniProt P42336); assay: as above; details: PIK3Cα_h
T4 construct: purchased DiscoveRx Corporation, San Diego (contract service, KINOMEscan)
T4 sequence (P42336 whole entry): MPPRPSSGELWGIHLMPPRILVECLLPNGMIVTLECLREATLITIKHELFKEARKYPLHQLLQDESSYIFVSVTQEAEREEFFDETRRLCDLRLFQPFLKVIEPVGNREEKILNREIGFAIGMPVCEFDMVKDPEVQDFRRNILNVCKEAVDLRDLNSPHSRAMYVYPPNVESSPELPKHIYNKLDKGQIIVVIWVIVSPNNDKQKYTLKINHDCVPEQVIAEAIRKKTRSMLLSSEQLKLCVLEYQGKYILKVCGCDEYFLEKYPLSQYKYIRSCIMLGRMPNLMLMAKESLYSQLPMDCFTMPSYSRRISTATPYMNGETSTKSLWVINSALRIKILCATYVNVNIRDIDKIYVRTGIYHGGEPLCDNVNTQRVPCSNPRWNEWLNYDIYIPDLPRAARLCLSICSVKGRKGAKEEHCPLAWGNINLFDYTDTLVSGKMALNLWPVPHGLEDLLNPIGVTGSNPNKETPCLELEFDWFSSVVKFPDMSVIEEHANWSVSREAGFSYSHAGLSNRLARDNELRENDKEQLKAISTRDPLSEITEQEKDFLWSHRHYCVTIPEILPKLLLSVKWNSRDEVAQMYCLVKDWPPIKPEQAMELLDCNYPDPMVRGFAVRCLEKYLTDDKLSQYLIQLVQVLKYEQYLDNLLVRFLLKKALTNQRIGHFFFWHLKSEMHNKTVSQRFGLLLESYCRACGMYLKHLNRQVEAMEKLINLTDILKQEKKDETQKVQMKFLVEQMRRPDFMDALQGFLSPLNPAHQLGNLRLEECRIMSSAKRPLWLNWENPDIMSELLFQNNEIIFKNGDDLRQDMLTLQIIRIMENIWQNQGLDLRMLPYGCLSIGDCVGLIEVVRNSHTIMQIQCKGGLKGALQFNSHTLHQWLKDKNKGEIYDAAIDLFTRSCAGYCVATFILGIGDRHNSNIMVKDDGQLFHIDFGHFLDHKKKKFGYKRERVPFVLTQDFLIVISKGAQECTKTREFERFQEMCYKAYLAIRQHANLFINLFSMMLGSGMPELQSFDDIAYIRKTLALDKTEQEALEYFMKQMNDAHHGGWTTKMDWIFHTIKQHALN
Summary of the method: as §1

[5] = target: T5, kinase enzymes (Homo sapiens, UniProt P42345); assay: as above; details: MTOR_h
T5 construct: purchased DiscoveRx Corporation, San Diego (contract service, KINOMEscan)
Summary of the method: as §1

[6] = system: Akt phosphorylated at Thr308 in PC-3 cells; assay: Cellular assay: phosphorylation of Akt at Thr308 in PC-3 cells (MSD ELISA); assay type: cell-based; details: PC-3 cells, 60 min compound incubation, MSD ELISA, read-out: IC50 pAkt_Thr308
Summary of the method: (§2)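 Compound treatment of PC-3 cells lasted 60 min at 37° C (0.3% DMSO). Lysates were then applied to plates carrying capture antibodies for the relevant phospho-site, and bound Akt was detected with an electrochemiluminescent anti-total Akt antibody; IC50s derive from five-point curves.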

[7] = system: Akt phosphorylated at Ser473 in PC-3 cells; assay: Cellular assay: phosphorylation of Akt at Ser473 in PC-3 cells (MSD ELISA); assay type: cell-based; details: PC-3 cells, 60 min compound incubation, MSD ELISA, read-out: IC50 pAkt_S473
Summary of the method: as §2

| Structure (SMILES) | Kd [1] | Kd [2] | Kd [3] | Kd [4] | Kd [5] | IC50 [6] | IC50 [7] | IC50 ([6]; Homo sapiens, PC-3, 1 h) | IC50 ([7]; Homo sapiens, PC-3, 1 h) |
| --- | --- | --- | --- | --- | --- | --- | --- | --- | --- |
| CN[C@H]1CCN(C(=O)c2cc(C(C)Nc3cc(F)c(F)c(F)c3)c3nc(N4CCOCC4)cnc3c2)C1 (single isomer, unassigned) [Compound 297b] | 112 nM | 0.5 nM | 1480 nM | 1020 nM | > 30200 nM | 3 nM | 7 nM | – | – |
| O=C(NCCO)c1cc(N2CCCC2c2cc(F)cc(F)c2)c2nc(N3CCOCC3)cnc2c1 (single isomer, unassigned) [Compound 244] | 4170 nM | 741 nM | 12600 nM | 8320 nM | 20000 nM | – | – | > 513 nM | > 513 nM |
| Cc1c(F)cccc1CN(C)c1cc(C(=O)N2CCNC(C(F)(F)F)C2)cc2ncc(N3CCOCC3)nc12 (single isomer, unassigned) [Compound 367b] | 427 nM | 35 nM | > 30200 nM | 2460 nM | 28200 nM | > 513 nM | > 513 nM | – | – |
| CC(Nc1ccc(F)c(F)c1)c1cc(C(=O)NCCCO)cc2ncc(N3CCOCC3)nc12 (single isomer, unassigned) [Compound 280b] | 21400 nM | 813 nM | 24500 nM | 22400 nM | > 30200 nM | > 513 nM | > 513 nM | – | – |
| CNCCOCCN(C)C(=O)c1cc(C(C)Nc2ccc(F)c(F)c2)c2nc(N3CCOCC3)cnc2c1 (single isomer, unassigned) [Compound 345b] | 22900 nM | 724 nM | > 30200 nM | > 30200 nM | > 30200 nM | > 513 nM | > 513 nM | – | – |
| CC(Oc1cc(F)cc(F)c1)c1cc(C(=O)N(C)CCO)cc2ncc(N3CCOCC3)nc12 (racemic) [Compound 59] | 331 nM | 3 nM | 10700 nM | 1200 nM | > 30200 nM | – | – | 110 nM | 263 nM |
| CC(Nc1cc(F)cc(F)c1)c1cc(CN2CCS(=O)(=O)CC2)cc2ncc(N3CCOCC3)nc12 (single isomer, unassigned) [Compound 157] | 20000 nM | 102 nM | > 30200 nM | 13200 nM | > 30200 nM | 417 nM | > 513 nM | – | – |
| CC(Nc1cc(F)cc(F)c1)c1cc(C(=O)N(C)C)cc2ncc(C3=CCOCC3)nc12 (single isomer, unassigned) [Compound 159] | 23400 nM | 110 nM | > 30200 nM | > 30200 nM | > 30200 nM | > 513 nM | > 513 nM | – | – |
| CN[C@H]1CCN(C(=O)c2cc(C(C)Nc3cc(F)c(F)c(F)c3)c3nc(N4CCOCC4)cnc3c2)C1 (single isomer, unassigned) [Compound 297a] | 6310 nM | 26 nM | 15100 nM | 17000 nM | > 30200 nM | 204 nM | 200 nM | – | – |
| COC1CN(Cc2cc(C(C)Nc3cc(F)cc(F)c3)c3nc(N4CCOCC4)cnc3c2)CC1OC (single isomer, unassigned) [Compound 207] | 891 nM | 6 nM | 16200 nM | 5250 nM | 7940 nM | 105 nM | 372 nM | – | – |
| CC(Oc1cc(F)c(F)c(F)c1)c1cc(C(=O)N(C)C2CCNC2)cc2ncc(N3CCOCC3)nc12 (single isomer, unassigned) [Compound 404b] | 1070 nM | 1 nM | 16600 nM | 5250 nM | > 30200 nM | 295 nM | 398 nM | – | – |
| CN(C)C(=O)c1cc([C@H]2CCCN2c2cc(F)cc(F)c2)c2nc(N3CCOCC3)cnc2c1 [Compound 1] | 15 nM | 0.3 nM | 313 nM | 34 nM | 28200 nM | 3 nM | 2 nM | – | – |
